From patent US7595345B2, “Vitamin D receptor modulators” (Eli Lilly and Company, priority 2003, dated 2009)

What was measured:
[1] = Mouse hypercalcemia assay; format: in vivo; conditions: female DBF mice, oral gavage for 6 days, serum ionized calcium 6 hours after last dosing
Description: 4. The Mouse Hypercalcemia Assay
(4) Materials and Method for the Mouse Hypercalcemia Assay: […]

[2] = molecular target: T1, VDR (pGal4-VDR-LBD) (Homo sapiens, UniProt P11473); assay: VDR CTF (Caco-2 cell co-transfection assay); format: cell-based; conditions: Caco-2 cells, Gal4-responsive reporter pFRLuc; surrogate for calcemic activity
T1 construct: the receptor expression vector pGal4-VDR-LBD (10 ng); expressed in transfected cells; host or cells: Caco-2 cells
T1 sequence (P11473 127-423 limits assumed): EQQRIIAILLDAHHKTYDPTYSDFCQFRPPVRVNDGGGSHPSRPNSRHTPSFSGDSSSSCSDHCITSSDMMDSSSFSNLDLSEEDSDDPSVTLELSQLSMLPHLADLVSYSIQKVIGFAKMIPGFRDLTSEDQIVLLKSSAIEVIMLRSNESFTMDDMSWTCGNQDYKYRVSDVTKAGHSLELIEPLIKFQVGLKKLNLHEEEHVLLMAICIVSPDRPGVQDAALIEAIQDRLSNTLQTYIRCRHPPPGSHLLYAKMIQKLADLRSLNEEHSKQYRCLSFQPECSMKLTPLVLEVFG
Method: 2. The Caco-2 Cell Co-Transfection Assay:
The Caco-2 cell assay is an indicator for the undesirable condition of hypercalcemia. This co-transfection assay is a surrogate assay for in vivo calcemic activity of VDR ligands. […] Preferred assay results are greater than 1000 nM.
(2) Materials and Method for the Caco-2 Cell Assay:
Caco-2 cells, grown in phenol red free, DMEM (Invitrogen, Carlsbad, Calif.) containing 10% charcoal-stripped FCS (Hyclone, Logan, Utah), were transfected with Fugene 6 reagent (Roche Diagnostics, Indianapolis, Ind.). Cells (5000/well) were plated 18 h before transfection in a 96 well plate. The Cells were transfected with Gal4-responsive reporter pFRLuc (150 ng, Stratagene, La Jolla Calif.) and the receptor expression vector pGal4-VDR-LBD (10 ng), along with Fugene 6 reagent (0.2 μl/well). The DNA-Fugene complex was formed by incubating the mixture for 30 min at room temperature. The cells were transfected in triplicate for 5 h, and treated with various concentrations of VDR ligands (form 0.01 nM to 10,000 nM concentration range) 18 h post-transfection. The luciferase activity was quantified using Steady-Glo reagent kit (Promega, Madison, Wis.) as per manufacturer's specifications.

[3] = molecular target: T2, RXR-VDR heterodimer (Gal4-RXR-DEF and VP16-VDR-LBD) (Homo sapiens, UniProt P11473); assay: RXR-VDR heterodimerization assay (SaOS-2 cells); format: cell-based; conditions: luciferase reporter pFR-LUC
T2 construct: Add the Gal4-RXR-DEF and VP16-VDR-LBD; expressed in transfected cells; host or cells: SaOs-2 cells
T2 sequence (P11473 127-423 limits assumed): T1 sequence (P11473 127-423 limits assumed)
T2 sequence (P19793 201-462 partner limits assumed): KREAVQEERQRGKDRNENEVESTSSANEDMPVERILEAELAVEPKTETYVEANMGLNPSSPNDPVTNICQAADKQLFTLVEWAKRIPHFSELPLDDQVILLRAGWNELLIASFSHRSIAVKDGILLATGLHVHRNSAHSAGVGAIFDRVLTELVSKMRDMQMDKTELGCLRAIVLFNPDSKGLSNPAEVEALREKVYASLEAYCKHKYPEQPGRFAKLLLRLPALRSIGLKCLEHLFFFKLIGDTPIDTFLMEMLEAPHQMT
Description: 1. The RXR-VDR Heterodimer Assay:
This assay provides the VDR activity of a test compound.
This is an in vitro efficacy assay for psoriasis, abscess and adhesion. Psoriasis involves both keratinocytes and immune cells. IL-10 is a unique cytokine because it is anti-inflammatory and immunosuppressive. This assay tells us whether a VDRM is able to function as an agonist in PBMCs (primary blood mononuclear cells) or not. […] 7. Other Compound Assay Standards An alternative measure of the efficacy of compounds of the invention for treatment of osteoporosis is a numerical ratio calculated as follows: • Dose Threshold needed to induce hypercalcemia • divided by • Dose Threshold needed for bone efficacy An alternative measure of the efficacy of compounds of the invention for treatment of psoriasis is a numerical ratio calculated as follows: • Dose Threshold needed to induce hypercalcemia • divided by • Dose Threshold needed to induce keratinocyte proliferation For the above ratios, Dose Thresholds are determined from dose response curve data. 8. The CaT1 (Calcium Transport Protein 1) Assay The CaT1 Assay is an indicator for the undesirable condition of hypercalcemia. […] Preferred assay results are greater than 1000 nM. Details of the Assay Methods: (1) Materials and Method for RXR-VDR Heterodimerization Assay: Transfection Method:
Grow SaOs-2 cells in T-152 cm^2 culture flasks in growth media.
Keep the density at 5-6×10^5 cells/ml
Passage cells 1:3 twice a week
Resuspend cells in plating media and transfer into growth media.
Transfection/Treatment Media:
D-MEM Low Glucose Without Phenol Red only
T-152 cm^2 culture flask:
Use well plate to plate cells
Use Deep well plate sterile to make up treatment media.
Luciferase Assay Reagent:
Use Steady-Glo Luciferase Reagent from Promega (Cat #E2550) Consists of:
a. E2533 Assay Substrate, lyophilized product and
Aspirate media from culture flask, rinse cells with HBSS and aspirate.
Add trypsin and incubate. […]
Read the plates after drug treatment […]
Count each well using a Luminescence counter, Top Count NXT by Packard […]

[4] = system: rat osteocalcin promoter; assay: OCN (osteocalcin) promoter assay; format: cell-based; conditions: Rattus norvegicus, 48 h, RG-15 (ROS 17/2.8) cells, 48 hr treatment, luciferase
Method: 3. The OCN (Osteocalcin) Promoter Assay
The OCN Promoter Assay is an indicator and marker for osteoporosis. Desired assay results are EC50 less than or equal to […]. Preferred assay results are less than […].
(3) Materials and Method for the OCN Promoter Assay:
The activation of osteocalcin by VDR ligands was evaluated in a rat osteoblast-like cell line RG-15 (ROS 17/2.8) stably expressing rat osteocalcin promoter fused with luciferase reporter gene. The stable cell lines were established as reported before (Activation of Osteocalcin Transcription involves interaction of protein kinase A- and Protein kinase C-dependent pathways. Boguslawski, G., Hale, L. V., Yu, X.-P., Miles, R. R., Onyia, J. E., Santerre R. F., Chandrasekhar, S. J. Biol. Chem. 275, 999-1006, 2000). Confluent RG-15 cells maintained in DMEM/F-12 medium (3:1) containing 5% FBS, 300 µg/ml G418 and at 37° C. under 5% CO2/95% air atmosphere were trypsinized (0.25% trypsin) and plated into white opaque 96-well cell culture plates (25000 cells/well). After 24 hr, cells (in DMEM/F-12 medium+2% FBS) were treated with various concentrations of compounds, dissolved in DMSO. The final DMSO concentration remained at 0.01% (v/v). After 48 hr treatment, the medium was removed, cells were lysed with 50 µl of lysis buffer (From Luciferase reporter assay system, Roche Diagnostics, Indianapolis, Ind.) and assayed for luciferase activity using the Luciferase Reporter Gene Assay kit from Boehringer Mannheim as per manufacturer's specifications.

Mouse Hypercal [1]: 3000 µg/kg/day
EC50 [2]: 0.471 µM
EC50 [3]: 0.0686 µM
EC50 [4]: 0.00096 µM
SMILES: CCC(CC)(c1ccc(C#CC2(O)CCCC2)c(C)c1)c1ccc(C(=O)NC(C)(C)C(=O)O)c(C)c1 [Ex. 1, 2-(4-{1-Ethyl-1-[4-(1-hydroxy-cyclopentylethynyl)-3-methyl-phenyl]-propyl}-2-methyl-benzoylamino)-2-methyl-propionic acid]
